Columns and labels:
[1] = system: MCF-7 breast cancer cells; experiment: Cell viability (MTT) assay, MCF-7; type: cell-based; conditions: 48 h, MTT
Description: MCF-7 is a commonly used tumor cell line.
(§1) The cell lines present in this study were obtained from Procell Life Science & Technology Co. Ltd. MCF-7, HepG2 and SJSA-1 cells were cultured in DMEM medium (DMEM, Gibco) supplemented with 10% fetal bovine serum (FBS, Gibco), 1% penicillin-streptomycin (Hyclone) at 37℃ in a humid environment with 5% CO2. HK-2 cells were cultured in DMEM/F12 (1:1) medium and placed in incubators in the same environment.
(§2) Cell viability was determined by MTT assay. MCF-7, HepG2, SJSA-1 and HK-2 cells (6 × 10^3 cells /well) were seeded in 96-well plates with serum-free medium for 24 h. […] After 48 or 72 h, 10 μL MTT (5 mg/mL, Beyotime) was added and incubated at 37 °C for 4 h. Then 100 μL of lysate was added. After complete dissolution of the crystal, the absorbance was measured at 540 nm and expressed as the average percentage of absorbance between treated and control cells. The value for control cells was set at 100%. Cell survival rate was calculated as the ratio of the absorbance of the cells and negative control after minus the blank absorbance respectively.

[2] = system: HepG2 cells; experiment: Cell viability (MTT) assay, HepG2; type: cell-based; conditions: 48 h, MTT
Description: (§3) To investigate the selectivity of these derivatives towards different tumor cell lines, we also selected HepG2 and osteosarcoma cell line SJSA-1 cells to evaluate the anti-proliferation activity of the derivatives. […] Except for compounds A2 and A11, the effects of other compounds on SJSA-1 were not strong.
as §1, §2

[3] = system: osteosarcoma cell line SJSA-1; experiment: Cell viability (MTT) assay, SJSA-1; type: cell-based; conditions: 72 h, MTT
Description: as §3, §1, §2

[4] = system: HK-2 cells; experiment: Cell viability (MTT) assay, HK-2 normal cells (cytotoxicity); type: cell-based; conditions: HK-2 normal cells, 48 h, MTT
Description: as §1, §2

[5] = biological target: T1, MDM2 protein (Homo sapiens, UniProt Q00987); design: method as in PMID 22380771; conditions: read-out: Ki (predicted affinity with MDM2 protein); virtual screening prediction; cited from earlier work
T1 construct: purchased Protintech (so in the source)
T1 sequence (Q00987 whole entry): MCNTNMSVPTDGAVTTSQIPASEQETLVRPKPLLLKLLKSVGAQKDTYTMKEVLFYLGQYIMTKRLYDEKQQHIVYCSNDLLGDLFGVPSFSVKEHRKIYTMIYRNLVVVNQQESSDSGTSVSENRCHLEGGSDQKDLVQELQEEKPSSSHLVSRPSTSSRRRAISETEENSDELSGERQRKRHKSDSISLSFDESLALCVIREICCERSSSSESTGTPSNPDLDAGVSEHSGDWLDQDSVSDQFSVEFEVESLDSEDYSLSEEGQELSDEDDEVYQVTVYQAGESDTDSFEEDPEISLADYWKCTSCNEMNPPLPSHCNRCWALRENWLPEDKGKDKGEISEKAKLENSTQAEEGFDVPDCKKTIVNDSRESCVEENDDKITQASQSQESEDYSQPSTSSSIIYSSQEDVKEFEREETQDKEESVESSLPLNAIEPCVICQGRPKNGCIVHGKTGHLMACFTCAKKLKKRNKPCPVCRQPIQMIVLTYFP

[6] = system: 95-D cells versus H1299 cells; design: method as in doi:10.13386/j.issn1002-0306.2015.11.030; conditions: cited from earlier work

Structure (SMILES) | Viability of Cells (% of Control) ([1]; MCF-7, 25 µM) | Viability of Cells (% of Control) ([1]; MCF-7, 50 µM) | Viability of Cells (% of Control) ([1]; MCF-7, 100 µM) | Viability of Cells (% of Control) ([2]; HepG2, 25 µM) | Viability of Cells (% of Control) ([2]; HepG2, 50 µM) | Viability of Cells (% of Control) ([3]; SJSA-1, 50 µM) | Viability of Cells (% of Control) ([3]; SJSA-1, 100 µM) | Viability of Cells (% of Control) ([4]; 50 µM) | Viability of Cells (% of Control) ([4]; 100 µM) | Ki [5] [µM] | sensitivity of 95-D cells (wild-type p53) relative to H1299 cells (no p53) [6] [times]
C[C@H](CC(=O)C[C@@H](C)[C@H]1C[C@H](O)[C@@]2(C)C3=C(C(=O)C[C@]12C)[C@@]1(C)CCC(=O)C(C)(C)[C@@H]1C[C@@H]3O)C(=O)O [GAA, Ganoderic acid A, reference compound] | 109.9 ± 2.1 % of Control | 86.2 ± 5.2 % of Control | 83.6 ± 9.4 % of Control | 83.0 ± 1.5 % of Control | 84.0 ± 0.1 % of Control | 73.5 ± 1.1 % of Control | 74.0 ± 4.0 % of Control | 117.8 ± 6.3 % of Control | 104.9 ± 7.6 % of Control | 0.147 | 
CC(=O)O[C@@H](C/C=C(\C)C(=O)O)[C@@H](C)[C@H]1C[C@H](OC(C)=O)[C@@]2(C)C3=CC[C@H]4C(C)(C)[C@H](OC(C)=O)CC[C@]4(C)C3=CC[C@]12C [ganoderic acid T] |  |  |  |  |  |  |  |  |  |  | 3.3

— article PMC10004777 (Molecules, 2023)
